The results in this text go back to US20110280940A1, “Di-Vanilloyl And Tri-Vanilloyl Derivatives For Use In Anti-Cancer Therapy” (priority 2008, published 2011).

Experiment [1] concerns the target T1, Aurora A kinase (Homo sapiens, UniProt O14965).
T1 construct: made in house
T1 sequence (O14965 1-403): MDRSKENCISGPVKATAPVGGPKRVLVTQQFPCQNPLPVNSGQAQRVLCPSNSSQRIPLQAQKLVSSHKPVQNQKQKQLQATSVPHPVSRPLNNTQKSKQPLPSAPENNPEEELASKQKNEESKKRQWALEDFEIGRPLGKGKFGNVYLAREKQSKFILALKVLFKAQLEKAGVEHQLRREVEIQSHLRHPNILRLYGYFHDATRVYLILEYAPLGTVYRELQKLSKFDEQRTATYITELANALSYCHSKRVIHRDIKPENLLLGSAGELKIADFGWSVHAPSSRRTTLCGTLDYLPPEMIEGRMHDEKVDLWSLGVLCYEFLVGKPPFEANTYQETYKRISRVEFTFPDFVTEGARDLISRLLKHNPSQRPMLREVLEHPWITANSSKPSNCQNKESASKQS
Put plainly: Radiometric protein kinase assay (33 PanQinase), Aurora A. The settings on record: for IC50: dose-response 0-100 μM, n=3, read-out: IC50: Concentration of drug needed in order to inhibit kinase activity by 50%, AurA; for inhibition at 57 µM: read-out: inhibition of Aurora A activity. Format: biochemical. Here is the method:
Note that at a concentration of 20 μM of the DLT compounds, the activity of the three Aurora kinases is reduced by approximately 40-50%, whereas at concentrations of 50 μM, i.e. the concentration used in the anti-proliferation assays of example 2B, the activity of said kinases is reduced by 60-75%.
The kinase inhibition profile of DLT95-Cl at 20 μM was determined using 255 protein kinases. Residual activity values were measured by testing each compound at one concentration in duplicate in each kinase assay. A radiometric protein kinase assay (33 PanQinase®Activity Assay) was used for measuring the kinase activity of 250 protein kinases. All kinase assays were performed in 96-well flashPlates™ from Perkin Elmer (Boston, Mass., USA) in a 50 μl reaction volume. The reaction cocktail was pipetted in 4 steps in the following order: • 10 μl of non-radioactive ATP solution (in H2O) • 25 μl of assay buffer/[γ-33P]-ATP mixture • 5 μl of test sample in 10% DMSO • 10 μl of enzyme/substrate mixture
The assay for all enzymes contained 60 mM HEPES-NaOH, pH 7.5, 3 mM MgCl2, 3 mM MnCl2, 3 μM Na-orthovanadate, 1.2 mM DTT, 50 μg/ml PEG20000, 1 μM ATP/[γ-33P]-ATP (approx. […] per well), protein kinase, and substrate. All PKC assays (except the PKC-mu and the PKC-nu assay) additionally contained 1 mM CaCl2, 4 mM EDTA, 5 μg/ml Phosphatidylserine and 1 μg/ml 1,2-Dioleyl-glycerol. The MYLK2, CAMK1D, CAMK2A, CAMK2B, CAMK2D, CAMK4, CAMKK2, DAPK2 and EEF2K assays additionally contained 1 μg/ml Calmodulin and 0.5 mM CaCl2. The PRKG1 and PRKG2 assays additionally contained 1 μM cGMP.
The protein kinases were expressed either in Sf9 insect cells or in E. coli as recombinant GST-fusion proteins or as His-tagged proteins. All kinases were produced from human cDNAs. Kinases were purified by affinity chromatography using either GSH-agarose (Sigma) or Ni-NTH-agarose (Qiagen). The purity of the protein kinases was examined by SDS-PAGE/coomassie staining. The identity of the protein kinases was checked by mass spectroscopy.
The reaction cocktails were incubated at 30° C. for 60 minutes. The reaction was stopped with 50 μl of 2% (v/v) H3PO4, plates were aspirated and washed two times with 200 μl 0.9% (w/v) NaCl. All assays were performed with a BeckmanCoulter Biomek 2000/SL robotic system.
Incorporation of ^33Pi (counting of “cpm”) was determined with a microplate scintillation counter (Microbeta, Wallac).
For each kinase, the median value of the cpm of three wells with complete reaction cocktails, but without kinase, was defined as “low control” […]. This value reflects unspecific binding of radioactivity to the plate in the absence of protein kinase but in the presence of the substrate. Additionally, for each kinase the median value of the cpm of three other wells with the complete reaction cocktail, but without any compound, was taken as the “high control”, i.e. full activity in the absence of any inhibitor […]. The difference between high and low control of was taken as 100% activity for each kinase. As part of the data evaluation the low control value of each kinase was subtracted from the high control value as well as from their corresponding “compound values”. The residual activity (in %) for each compound well was calculated by using the following formula: Res. Activity (%)=100×[(cpm of compound−low control)/(high control−low control)]

Experiment [2] relates to U373-MG glioma cell line. Kind of experiment: Cellular imaging (quantitative videomicroscopy), global growth ratio, U373. Format: cell-based. The settings on record: Homo sapiens, 72 h, read-out: Global Grow Ratio Treated/Ct (GGR T/Ct) determined by Video Quantitative microscopy, U373.

On to `COc1cc(C(=O)O)ccc1O` [vanillic acid, reference compound], for which the IC50 in experiment [1] is more than 100 µM.
As usually defined, the inhibition is the drop in the measured response relative to a control, in per cent. As for `O=C(OCc1cc(COC(=O)c2ccc(O)c(Cl)c2)cc(COC(=O)c2ccc(O)c(Cl)c2)c1)c1ccc(O)c(Cl)c1` [DLT95-Cl, [3,5-bis[(4-hydroxy-3-chloro-benzoyl)oxymethyl]phenyl]methyl 4-hydroxy-3-chloro-benzoate], in experiment [1], the IC50 turned out to be 1.7 µM and the inhibition at 57 µM is not below 50%. The activity at 31 µM in experiment [2] worked out at 50%.
Take `COc1cc(C(=O)OCc2cc(COC(=O)c3ccc(O)c(OC)c3)cc(COC(=O)c3ccc(O)c(OC)c3)c2)ccc1O` [DLT95, [3,5-bis[(4-hydroxy-3-methoxy-benzoyl)oxymethyl]phenyl]methyl 4-hydroxy-3-methoxy-benzoate]: in experiment [1], the IC50 worked out at 9.1 µM.
On to `O=C(OCc1cc(COC(=O)c2ccc(O)c(F)c2)cc(COC(=O)c2ccc(O)c(F)c2)c1)c1ccc(O)c(F)c1` [DLT95-F, [3,5-bis[(4-hydroxy-3-fluoro-benzoyl)oxymethyl]phenyl]methyl 4-hydroxy-3-fluoro-benzoate], for which, in experiment [1], the IC50 came out at 3.2 µM and the inhibition at 57 µM is not below 50%. Also, the activity at 37 µM in experiment [2] came out at 40%.
